What was measured:
[1] = test system: TNFα release from LPS-stimulated THP-1 cells (iRhom2/ADAM17-dependent); assay: Primary screen (Example 1b): LPS-stimulated TNFα release from THP-1 cells, HTRF; assay type: cell-based; details: Homo sapiens, overnight pre-incubation, LPS 100 ng/mL, 3 h, normalized against 10 μM Batimastat
Description: (§1) Two separate screens to identify novel small molecule inhibitors of iRhom2/ADAM17 activity were developed. […] Therefore, the primary screen for small molecule inhibitors of iRhom2/ADAM17 was a screen for inhibitors that blocked the release of TNFα from LPS-stimulated THP-1 human myeloid cells, a process that depends on iRhom2 and ADAM17. Since the release of TNFα from THP-1 cells can be blocked at many stages of the LPS/TLR4/iRhom2/ADAM17 pathway, a secondary screen was performed for another iRhom2/ADAM17 selective substrate, Kit-ligand 2 (KL-2) (Maretzky T et al. (July 2013), “iRhom2 controls the substrate selectivity of stimulated ADAM17-dependent ectodomain shedding”, PNAS 110(28): 11433-11438) in a different human cell type, human embryonic kidney cells (HEK 293).
THP-1 cells were plated in low volume 384 wells (10,000 cells per well in 12.6 μL RPMI medium) together with inhibitors or 10 μM BB94 and incubated over night. The next day, TNFα shedding was initiated by stimulation of THP-1 cells with 100 ng/mL LPS (1.8 μL of an 800 ng/mL LPS stock) for 3 hrs at 37° C. The extent of released TNFα was detected with the corresponding HTRF antibodies labeled with europium cryptate (donor) and d2 (acceptor). The HTRF signal was generated by proximity of europium cryptate and d2. All detection reagents were purchased from Cisbio. TNFα detection was performed according to the manufacturer's protocol (Product Insert for Cisbio TNFα (h) Kit Part #62HTNFAPEG & 62HTNFAPEH; https://www.cisbio.com/media/asset/c/i/cisbio_dd_pi_62htnfapeg-62htnfapeh.pdf, accessed Sep. 28, 2020).
Low volume 384 well plates were pre-coated with small molecule library compounds for a final concentration of 20 μM in a 15 μL reaction, or 0.75 μL of 200 μM stock of BB94 in 5% DMSO (final concentration 0.25%). 12.6 μL of cell suspension [8E5/mL; 10,000 cells/well; culture RPMI medium] and pre-incubated at 37° C., 5% CO2, over night. The next day, 1.8 μL of an 800 ng/mL LPS stock was added [final concentration 100 ng/mL in 15 μL assay] and the cells were incubated at 37° C., 5% CO2, for 3 h. Subsequently, 3 μL of the HTRF-mix [used at 1:3 dilution of cisbio HTRF human TNF] was added and the plates were incubated for an additional 2 hrs at 25° C. After an incubation at room temperature for 2 h, the HTRF readout was performed. Then data evaluation for normalization against the 10 μM Batimastat control (=100% […]) was applied.

[2] = test system: PMA-stimulated KL2 release from HEK-293 cells (iRhom2/ADAM17 selective substrate); assay: Secondary screen (Example 3b): PMA-stimulated KL2 release from HEK-293 cells, AP readout; assay type: cell-based; details: Homo sapiens, HEK293, HEK-293 cells expressing KL2-AP, PMA 100 ng/mL, 2 h, read-out: Secondary Screen IC50 KitL2
Description: as §1
Expression plasmids for alkaline phosphatase (AP)-fused human KL2 and TGFα had been previously designed and generated through gene synthesis followed by subcloning into the pcDNA3.1(+)/Hygro expression vector. […] Subsequently, DNA amplifications were performed to obtain sufficient amounts of the expression vectors. The quality of DNA and gene sequences were confirmed through restriction digest and Sanger sequencing. In parallel, cell culture of HEK-293 cells was initiated. Master and working cell banks were prepared, scaled up and transfected with the respective constructs by electroporation. During cell culturing, cell density and viability were monitored to ensure optimal conditions for the transfections. After PMA stimulation, AP-coupled KL2 or TGFα were detected by measurement of AP activity in the supernatant.
After electroporation, cells were further cultured in presence of selection antibiotics, hygromycin B, to generate stably transfected polyclonal cell pools. For both assays, KL2 and TGFα shedding, the respective selected pool turned out to be suitable. Final assay conditions were determined for the selected pools. For all experiments, batimastat (BB94, 10 μM) was used as positive control for full inhibition of KL2 or TGFα shedding.
The wells of sterile 384-well flat bottom clear plates for KL2-AP assays were coated with 10 μL of 0.1 mg/mL poly-d-lysine for 3-4 hr at 25° C. or overnight at 4° C., then washed 2× with PBS and patted dry. 60 μL of cells (40,000/well) were added to the sterile 384-well plate and incubated in Optimem (with 2% FCS and 1% Pen-strep) overnight at 37° C. (5% CO2). After incubation overnight, 55 μL medium were removed with a BioTek EL406 and 10 μL of prediluted compounds were added to the cells for a final concentration of 20 μM. After incubation for 15 min, 15 μL of PMA (100 ng/mL final conc.) were added. The cells were incubated for 2 h at 37° C. (5% CO2). Then, the plates were centrifuged for 5 min at 1000 rpm and 3 μL of the supernatant was transferred to a fresh 384 well plate and 9 μL of AP Balance Buffer was added per well. 12 μL of pNPP p-nitrophenyl phosphate (final 1 M pNPP) was added. AP reaction was performed for 1 h at 37° C. The reaction was stopped by addition of 12 μL of NaOH (1 M final conc.), the plates were centrifuged to remove air bubbles and the absorbance of pNP was measured at 405 nm.

## O=C(c1c(Cl)cccc1Cl)N1CCC(Cc2ccc(F)cc2)CC1 [Compound 3]
[1]
  IC50: < 0.0625 µM
[2]
  IC50: > 40 µM

## Cc1c(C(=O)NCc2cccs2)sc(=O)n1Cc1ccccc1 [Compound 4]
[1]
  IC50: 7.57 µM
[2]
  IC50: > 40 µM

## Cc1c(C(=O)NCc2cccs2)sc(=O)n1Cc1ccccc1F [Compound 5]
[1]
  IC50: 5.21 µM
[2]
  IC50: > 40 µM

## Cc1c(C(=O)NCc2ccco2)sc(=O)n1Cc1ccccc1F [Compound 7]
[1]
  IC50: 3.93 µM
[2]
  IC50: 22 µM

— US20260242359A1, “IRHOM2 INHIBITORS AND USES THEREOF” (NEW YORK SOCIETY FOR THE RELIEF OF THE RUPTURED AND …, priority 2023, published 2026)
